According to ChEMBL document CHEMBL1127032, “(Dipropylphenoxy)phenylacetic acids: a new generation of nonpeptide angiotensin II receptor antagonists” (J Med Chem, 1993):

Key:
[1] = biological target: T1, Type-2 angiotensin II receptor (Rattus norvegicus, UniProt P35351); test: Displacement of […][Sar1,IIe8]AII from rat midbrain angiotensin II (AT2) receptor
T1 sequence (P35351 whole entry): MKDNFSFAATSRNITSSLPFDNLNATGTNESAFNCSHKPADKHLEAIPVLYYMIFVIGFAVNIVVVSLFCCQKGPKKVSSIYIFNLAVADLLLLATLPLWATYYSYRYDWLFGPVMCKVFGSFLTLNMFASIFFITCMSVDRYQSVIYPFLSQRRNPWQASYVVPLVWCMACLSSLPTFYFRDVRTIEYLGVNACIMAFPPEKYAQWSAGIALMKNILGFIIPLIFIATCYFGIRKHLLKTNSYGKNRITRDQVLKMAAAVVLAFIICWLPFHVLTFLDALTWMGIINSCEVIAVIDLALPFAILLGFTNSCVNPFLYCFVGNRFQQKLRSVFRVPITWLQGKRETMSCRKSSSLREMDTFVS

[2] = biological target: T2, Type-1 angiotensin II receptor (Oryctolagus cuniculus, UniProt P34976); test: Displacement of […][Sar1,IIe8]AII from rabbit aorta Angiotensin II receptor, type 1; type: tissue-based
T2 sequence (P34976 whole entry): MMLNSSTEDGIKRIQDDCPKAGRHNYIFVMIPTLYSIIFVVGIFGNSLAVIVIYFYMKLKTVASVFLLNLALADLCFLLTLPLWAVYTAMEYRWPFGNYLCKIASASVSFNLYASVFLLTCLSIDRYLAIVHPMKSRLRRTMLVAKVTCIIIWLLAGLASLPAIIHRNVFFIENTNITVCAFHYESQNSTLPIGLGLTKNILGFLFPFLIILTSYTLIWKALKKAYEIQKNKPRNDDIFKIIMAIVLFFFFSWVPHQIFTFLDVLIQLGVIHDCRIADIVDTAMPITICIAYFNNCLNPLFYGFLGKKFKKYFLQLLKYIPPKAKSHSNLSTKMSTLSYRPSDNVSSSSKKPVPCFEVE

| SMILES | IC50 [1] [nM] | IC50 [2] [nM] |
| --- | --- | --- |
| CCCc1cc(Cn2c(CC)nc3c(C)cc(C)nc32)cc(CCC)c1OC(C(=O)O)c1cccc(C)c1 (stereo not drawn) | 800 | 0.74 |
| CCCc1cc(Cn2c(CC)nc3c(C)cc(C)nc32)cc(CCC)c1OC(C(=O)O)c1cccc(-c2ccccc2)c1 (stereo not drawn) | 740 | 6.8 |
| CCCc1cc(Cn2c(CC)nc3c(C)cc(C)nc32)cc(CCC)c1OC(C(=O)O)c1ccc(CC)cc1 (stereo not drawn) | 240 | 19 |
| CCCc1cc(Cn2c(CC)nc3c(C)cc(C)nc32)cc(CCC)c1OC(C(=O)O)c1ccc(C)cc1 (stereo not drawn) | 400 | 4 |
| CCCc1cc(Cn2c(CC)nc3c(C)cc(C)nc32)cc(CCC)c1OC(C(=O)O)c1ccc(Oc2ccccc2)cc1 (stereo not drawn) | 1900 | 5.2 |
| CCCc1cc(Cn2c(CC)nc3c(C)cc(C)nc32)cc(CCC)c1OC(C(=O)O)c1cccc(Oc2ccccc2)c1 (stereo not drawn) | 1600 | 0.47 |
| CCc1nc2c(C)cc(C)nc2n1Cc1ccc(-c2ccccc2-c2nnn[nH]2)cc1 [L-158809] | > 10000 | – |

Continued, values first:

| IC50 [1] [nM] | IC50 [2] [nM] | SMILES |
| --- | --- | --- |
| 7500 | 1.2 | CCCc1cc(Cn2c(CC)nc3c(C)cc(C)nc32)cc(CCC)c1OC(C(=O)O)c1ccccc1C (stereo not drawn) |
| 2300 | 0.75 | CCCc1cc(Cn2c(CC)nc3c(C)cc(C)nc32)cc(CCC)c1OC(C(=O)O)c1cccc(Cl)c1 (stereo not drawn) |
| 2600 | 0.9 | CCCc1cc(Cn2c(CC)nc3c(C)cc(C)nc32)cc(CCC)c1OC(C(=O)O)c1ccccc1 (stereo not drawn) |
| 3500 | 0.53 | CCCc1cc(Cn2c(CC)nc3c(C)cc(C)nc32)cc(CCC)c1OC(C(=O)O)c1ccccc1Cl (stereo not drawn) |
| 450 | 2.8 | CCCc1cc(Cn2c(CC)nc3c(C)cc(C)nc32)cc(CCC)c1OC(C(=O)O)c1ccc(Cl)cc1 (stereo not drawn) |
